# Measured values from BindingDB's records for doi:10.1046/j.1471-4159.1996.67010058.x (Cns Research, 1996).
# Where “and” joins values, the source holds several entries; their conditions need not be identical. Identical values can stand only once.
# Legend:
# [1] = target: Metabotropic glutamate receptor 2 (Homo sapiens, UniProt Q14416)
# [2] = target: Metabotropic glutamate receptor 3 (Homo sapiens, UniProt Q14832)
# [3] = target: Metabotropic glutamate receptor 1 (Homo sapiens, UniProt Q13255)
# Metabotropic glutamate receptor 1, sequence (Q13255 whole entry): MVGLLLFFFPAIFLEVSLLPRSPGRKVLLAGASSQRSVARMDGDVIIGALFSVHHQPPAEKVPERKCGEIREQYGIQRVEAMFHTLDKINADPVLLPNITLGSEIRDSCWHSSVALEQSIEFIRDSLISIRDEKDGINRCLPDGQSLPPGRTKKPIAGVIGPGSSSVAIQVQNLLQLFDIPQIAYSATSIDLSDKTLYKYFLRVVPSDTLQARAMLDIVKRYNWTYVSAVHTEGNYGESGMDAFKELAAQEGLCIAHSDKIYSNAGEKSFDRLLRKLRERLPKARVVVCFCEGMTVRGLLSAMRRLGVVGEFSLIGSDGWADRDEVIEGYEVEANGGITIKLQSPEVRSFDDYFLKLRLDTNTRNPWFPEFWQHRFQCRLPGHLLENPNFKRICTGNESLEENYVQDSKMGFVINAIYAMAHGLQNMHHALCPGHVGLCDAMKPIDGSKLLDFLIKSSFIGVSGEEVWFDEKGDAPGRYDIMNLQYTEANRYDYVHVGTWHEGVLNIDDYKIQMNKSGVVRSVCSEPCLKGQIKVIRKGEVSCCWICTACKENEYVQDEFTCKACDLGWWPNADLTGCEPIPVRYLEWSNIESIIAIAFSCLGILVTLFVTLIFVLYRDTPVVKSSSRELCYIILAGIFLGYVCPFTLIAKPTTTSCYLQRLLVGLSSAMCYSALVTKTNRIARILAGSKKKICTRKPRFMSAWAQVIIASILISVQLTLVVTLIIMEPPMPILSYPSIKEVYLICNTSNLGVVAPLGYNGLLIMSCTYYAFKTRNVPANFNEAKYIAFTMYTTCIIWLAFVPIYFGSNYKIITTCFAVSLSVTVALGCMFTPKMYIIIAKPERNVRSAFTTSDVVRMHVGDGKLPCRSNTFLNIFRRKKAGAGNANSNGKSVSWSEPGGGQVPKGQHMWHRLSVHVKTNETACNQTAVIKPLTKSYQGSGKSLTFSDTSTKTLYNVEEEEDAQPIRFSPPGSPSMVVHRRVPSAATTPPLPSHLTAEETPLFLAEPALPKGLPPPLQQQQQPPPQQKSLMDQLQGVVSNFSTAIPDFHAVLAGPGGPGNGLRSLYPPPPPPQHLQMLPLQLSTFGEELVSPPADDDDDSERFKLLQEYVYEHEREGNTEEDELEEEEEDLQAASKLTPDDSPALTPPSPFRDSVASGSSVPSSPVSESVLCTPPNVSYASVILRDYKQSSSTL
# Metabotropic glutamate receptor 3, sequence (Q14832 whole entry): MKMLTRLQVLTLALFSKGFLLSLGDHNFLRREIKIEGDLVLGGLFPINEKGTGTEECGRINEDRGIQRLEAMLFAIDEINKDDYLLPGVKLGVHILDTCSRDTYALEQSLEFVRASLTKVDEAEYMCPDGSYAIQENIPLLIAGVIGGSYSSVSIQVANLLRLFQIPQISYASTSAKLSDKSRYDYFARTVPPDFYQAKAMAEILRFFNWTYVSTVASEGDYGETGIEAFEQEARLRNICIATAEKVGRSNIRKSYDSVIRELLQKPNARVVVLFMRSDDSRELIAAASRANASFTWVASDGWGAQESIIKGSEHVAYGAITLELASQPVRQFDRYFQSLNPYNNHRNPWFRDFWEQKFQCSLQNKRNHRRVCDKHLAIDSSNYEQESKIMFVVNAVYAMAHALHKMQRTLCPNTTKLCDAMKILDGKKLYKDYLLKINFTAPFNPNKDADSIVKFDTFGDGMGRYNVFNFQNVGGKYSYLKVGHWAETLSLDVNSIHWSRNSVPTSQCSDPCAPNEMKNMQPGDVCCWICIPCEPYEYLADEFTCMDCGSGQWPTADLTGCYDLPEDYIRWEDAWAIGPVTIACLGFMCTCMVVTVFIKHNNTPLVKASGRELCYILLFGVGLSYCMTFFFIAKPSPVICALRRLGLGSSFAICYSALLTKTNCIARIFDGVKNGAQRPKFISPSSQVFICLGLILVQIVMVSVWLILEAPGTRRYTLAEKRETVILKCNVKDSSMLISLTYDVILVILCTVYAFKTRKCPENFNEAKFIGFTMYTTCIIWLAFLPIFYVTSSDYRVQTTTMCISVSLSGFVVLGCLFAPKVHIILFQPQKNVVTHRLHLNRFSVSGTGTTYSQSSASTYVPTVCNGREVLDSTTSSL
# Metabotropic glutamate receptor 2, sequence (Q14416 whole entry): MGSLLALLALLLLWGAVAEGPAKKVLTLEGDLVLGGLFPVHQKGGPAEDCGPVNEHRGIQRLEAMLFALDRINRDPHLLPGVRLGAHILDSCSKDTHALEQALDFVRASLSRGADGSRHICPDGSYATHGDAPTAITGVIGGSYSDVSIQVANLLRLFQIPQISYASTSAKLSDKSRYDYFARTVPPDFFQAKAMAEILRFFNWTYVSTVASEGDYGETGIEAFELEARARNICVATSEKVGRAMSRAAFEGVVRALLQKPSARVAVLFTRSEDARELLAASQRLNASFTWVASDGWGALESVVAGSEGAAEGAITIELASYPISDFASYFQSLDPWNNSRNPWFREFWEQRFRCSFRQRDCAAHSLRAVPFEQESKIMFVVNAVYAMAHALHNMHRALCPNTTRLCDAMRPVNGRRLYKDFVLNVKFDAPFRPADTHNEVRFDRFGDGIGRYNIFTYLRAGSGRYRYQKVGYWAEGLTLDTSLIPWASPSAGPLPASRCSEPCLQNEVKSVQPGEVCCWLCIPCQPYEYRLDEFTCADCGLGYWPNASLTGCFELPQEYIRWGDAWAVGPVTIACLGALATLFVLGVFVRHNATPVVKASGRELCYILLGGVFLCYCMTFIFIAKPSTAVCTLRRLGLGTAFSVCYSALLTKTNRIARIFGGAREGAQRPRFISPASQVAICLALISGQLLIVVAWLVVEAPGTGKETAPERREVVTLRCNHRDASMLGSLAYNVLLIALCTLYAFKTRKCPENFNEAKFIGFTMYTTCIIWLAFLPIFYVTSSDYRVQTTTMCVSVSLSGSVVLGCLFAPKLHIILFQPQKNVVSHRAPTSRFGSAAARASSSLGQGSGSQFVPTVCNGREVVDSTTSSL
Compound,Ki [1],Ki [2],Ki [3]
"N[C@@]1(C(=O)O)CC[C@H](C(=O)O)C1 [1S, 3R-ACPD]",> 10 µM,> 10 µM and 5.4 µM,–
N[C@H](C(=O)O)[C@H]1C[C@H]1C(=O)O [L-CCG-IV],> 10 µM,–,3.47 µM
"N[C@@H](Cn1oc(=O)[nH]c1=O)C(=O)O [2-amino-3-(3,5-dioxo[1,2,4]oxadiazolidin-2-yl)propionic acid]",0.42 µM,–,–
